Experimental data taken from patent US11154519B2, “Inhibitors and their uses” (MEDICAL RESEARCH COUNCIL, priority 2015, dated 2021).

Experiments:
PPP1R15B-PP1 = target: T1, PPP1R15B-PP1 (Homo sapiens, UniProt Q5SWA1); experiment: SPR steady-state binding to R15B-PP1 holophosphatase; conditions: SPR steady-state, MBP-R15B340-698-His captured on bio-PP1c, 10° C.; read-out: R15B (KD)
T1 construct: cDNAs encoding amino acids 325-636 of PPP1R15A and 340-698 of PPP1R15B were His-tagged and cloned into pMAL-c5x; made in house; host or cells: R15B: E. coli BL21-Gold (pMAL-c5x); PP1γ: Sf9 insect cells (baculovirus, pDW464)
Protocol: PPP1R15A^325-636 and PPP1R15B^340-698 were expressed and purified as follows: the cDNAs encoding amino acids 325-636 of PPP1R15A and 340-698 of PPP1R15B were His-tagged and cloned into pMAL-c5x. Recombinant PPP1R15A/B were expressed in BL21-Gold cells and purified by affinity chromatography on a HisTrap HP column (GE Healthcare), followed by a MBPTrap HP column (GE Healthcare). The proteins were analyzed on BOLT SDS-PAGE 4-12% Bis-Tris gels (Life Technologies) stained with SimplyBlue SafeStain (Life Technologies). cDNA encoding for human PP1γ was cloned into the baculovirus transfer vector pDW464 to add a biotin acceptor peptide (BAP). The vector also encodes for the E. coli biotin holoenzyme synthetase (BirA), so that BAP-tagged proteins can be biotinylated in vivo in Spodoptere frugiperda (Sf9) insect cells (Duffy et al., Anal. Biochem., 262, 122-128, 1998). The Bac-to-Bac baculovirus expression system (Life Technologies) was used to generate the recombinant bacmid DNA and Sf9 insect cells were used to amplify the viral stocks Cultures were harvested by centrifuging at 1,200 g for 15 minutes, cell pellets were resuspended in lysis buffer (50 mM Tris pH 7.4, 150 mM NaCl, 0.2% Triton, 5% Glycerol, 1 PiC tablet (Roche) per 50 ml and 0.2 mM PMSF) and followed by gentle sonication. The protein was first purified on a 5 ml HiTrap Q HP column (GE Healthcare) followed by a HiLoad 16/600 Superdex 200 column (GE Healthcare). The positive fractions confirmed by SDS-PAGE and western blot were pooled, concentrate to ˜1 μM and stored at −80° C.
A Biacore T200 (GE Healthcare) system was used for all experiments and biotinylated PP1 was captured using a Sensor Chip SA (GE Healthcare, catalog no BR-1005-31). The streptavidin coated surface was activated by 1 min injection with a solution of 50 mM NaOH and 1 M NaCl. Biotin-PP1 was diluted in the running buffer (50 mM Tris pH 7.5, 100 mM NaCl, 0.1 mM EGTA, 1 mM MnCl2, 0.05% Tween 20) and injected at approximately 300 nM concentration directly to streptavidin coated surface for 100 sec or to reach immobilization level of biotin-PP1 corresponding to ˜7000 RU. A blank immobilization was performed for one of the SA sensor chip surface to use as a reference.
With minor deviations, the same procedure and conditions were used in all binding experiments. Small molecules were stored as 50 mM stock solutions in 100% DMSO. Prior to determining binding constants, serial dilutions of either 12 or 8 concentrations of the compounds were prepared in the running buffer in a 96-well plate. Prior to each compound dilution series the regulatory subunit, R15A or R15B, was diluted to […] in the running buffer and captured on the biotin-PP1 surface, to form the holophosphatase complex on the sensor chip surface. Then, without regenerating the surface, the compound dilution series was injected onto the surface of the chip Sensorgrams were analyzed using the Biacore T200 evaluation software and the binding constants determined based on a steady-state model. Kinetic experiments are carried out using different concentrations of the compound and their respective equilibrium binding levels determined.
Surface Plasmon Resonance (SPR) was used to measure the binding affinity of compounds to the PPP1R15A/B-PP1 phosphatase complex. Biotin acceptor peptide (BAP) was fused to the N-terminus of PP1γ, which enables the biotinylation of the BAP-tagged protein in Sf9 insect cells. After purification the BAP-PP1γ protein was captured on a streptavidin sensor chip (SA-chip, GE healthcare) to a response level of ˜5.000 RU. Using controlled biotinylation enables orientated and uniform immobilization on the sensor chip surface. The PP1γ was then used to capture PPP1R15A/B and form a holophosphatase complex on the surface of the streptavidin chip. This complex can then be used to test binding of compounds. 10 μM PPP1R15A/B protein concentration was used to form the holophosphatase complex during a 80 s injection. […]

PP1 = target: T2, PP1 (Homo sapiens, UniProt P36873); experiment: SPR binding to PP1 alone; conditions: SPR steady-state, bio-PP1c surface
T2 construct: made in house; host or cells: Sf9 insect cells (baculovirus, pDW464)

protein synthesis = experiment: Assessment of translation rates (35S-methionine labelling); format: cell-based; conditions: for Effect on translation: 35S-methionine labelling of cells; for Effect on translation ⇒ Inhibits: target(s) concluded to be inhibited
Protocol: Cells (90,000 cells/ml) were plated in 12-well plates, treated as indicated, labelled with 100 μCi/mI 35S-methionine (Hartmann Analytic) for 10 minutes at 37° C., washed with ice-cold PBS and lysed in 120 μl Laemmli Buffer. Lysates were boiled at 95° C. for 5 minutes, sonicated and resolved on 4-12% Bolt Bis-Tris Plus Gels (Thermo Fisher Scientific). Gels were then stained with InstantBlue (Expedeon) and analyzed by phosphorimaging and quantified using ImageJ.
By monitoring translation rates as described above, the activities of R15A, R15B and R15A/B inhibitors can be defined as follows (also shown in FIG. 12). An R15A inhibitor has no effect on translation in unstressed cells but prolongs translation attenuation following stress. A selective R15B inhibitor transiently attenuate protein synthesis because R15A compensates for the inhibition of R15B.

T2 sequence (P36873 whole entry): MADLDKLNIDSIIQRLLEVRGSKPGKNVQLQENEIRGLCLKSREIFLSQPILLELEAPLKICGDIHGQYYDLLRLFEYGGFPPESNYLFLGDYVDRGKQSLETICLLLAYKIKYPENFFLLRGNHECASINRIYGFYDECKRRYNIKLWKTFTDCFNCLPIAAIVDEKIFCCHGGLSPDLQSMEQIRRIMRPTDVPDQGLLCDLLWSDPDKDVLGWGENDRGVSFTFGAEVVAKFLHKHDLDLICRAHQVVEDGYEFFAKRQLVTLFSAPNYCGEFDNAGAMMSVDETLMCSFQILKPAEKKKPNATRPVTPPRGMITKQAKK
T1 sequence (Q5SWA1 340-698): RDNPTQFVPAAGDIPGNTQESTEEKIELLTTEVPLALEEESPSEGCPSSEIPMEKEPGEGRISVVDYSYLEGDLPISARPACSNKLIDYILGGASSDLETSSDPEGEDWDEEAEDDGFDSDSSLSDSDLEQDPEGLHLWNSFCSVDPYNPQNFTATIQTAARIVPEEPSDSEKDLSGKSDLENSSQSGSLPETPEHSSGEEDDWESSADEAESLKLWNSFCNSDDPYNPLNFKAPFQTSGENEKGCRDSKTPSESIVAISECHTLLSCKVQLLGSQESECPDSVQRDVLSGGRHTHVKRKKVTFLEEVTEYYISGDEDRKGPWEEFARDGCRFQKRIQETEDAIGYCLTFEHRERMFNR
T1 sequence (P36873 whole entry partner, the tested form may be a part): as the sequence (P36873 whole entry) above

Compound	Kd (PPP1R15B-PP1)	Kd (PP1)	Effect on translation (protein synthesis)	Effect on translation ⇒ Inhibits (protein synthesis)	protein synthesis rates (protein synthesis; unstressed cells, 10 μM, FIG. 12)
[H]/N=C(\N)NN=Cc1ccc(Cl)cc1 [Compound 1, (E)-2-((4-chlorophenyl)methylene)hydrazine-1-carboximidamide]	7.33 ± 1.79 µM	6.28 µM	–	–	–
N=C(N)N/N=C/c1cc(Cl)c(Cl)c(Cl)c1 [Compound 3, (E)-2-(3,4,5-trichlorobenzylidene)hydrazine-1-carboximidamide]	0.149 µM	10.3 µM	Persistent	–	–
[H]/N=C(\N)NN=Cc1cc(Cl)c(F)c(Cl)c1 [Compound 5, (E)-2-(3,5-dichloro-4-fluorobenzylidene)hydrazine-1-carboximidamide]	2.67 ± 0.4 µM	30.6 µM	–	–	–
[H]/N=C(\N)NN=Cc1ccc(Cl)c(Cl)c1Cl [Compound 6, (E)-2-(2,3,4-trichlorobenzylidene)hydrazine-1-carboximidamide]	9.09 ± 1.37 µM	–	Persistent	–	–
[H]/N=C(\N)NN=Cc1cc(F)c(Cl)cc1Cl [Compound 7, (E)-2-(2,4-dichloro-5-fluorobenzylidene)hydrazine-1-carboximidamide]	4.34 ± 2.35 µM	13 µM	–	R15AB	–
[H]/N=C(\N)NN=Cc1ccc(Cl)c(F)c1 [Compound 8, (E)-2-(4-chloro-3-fluorobenzylidene)hydrazine-1-carboximidamide]	11.3 µM	10.6 ± 3.82 µM	–	R15AB	–
[H]/N=C(\N)NN=Cc1cccc(Cl)c1Br [Compound 9, (E)-2-(2-bromo-3-chlorobenzylidene)hydrazine-1-carboximidamide]	39.6 ± 5.9 µM	14.7 ± 1.4 µM	–	Off	–
[H]/N=C(\N)NN=Cc1cc(Cl)cc(Cl)c1Cl [Compound 10, (E)-2-(2,3,5-trichlorobenzylidene)hydrazine-1-carboximidamide]	0.44 ± 0.09 µM	–	Persistent	–	persistently inhibits protein synthesis
[H]/N=C(\N)NN=Cc1ccc(Cl)c(Cl)c1 [Compound 11, (E)-2-(3,4-dichlorobenzylidene)hydrazine-1-carboximidamide]	13.4 ± 0.47 µM	–	–	R15AB	–
[H]/N=C(\N)NN=Cc1ccc(Cl)c(F)c1Cl [Compound 13, (E)-2-(2,4-dichloro-3-fluorobenzylidene)hydrazine-1-carboximidamide]	6.68 ± 2.34 µM	–	Persistent	R15AB	–
[H]/N=C(\N)NN=Cc1ccc(F)c(Cl)c1Cl [Compound 14, (E)-2-(2,3-dichloro-4-fluorobenzylidene)hydrazine-1-carboximidamide]	5.43 ± 1.26 µM	–	Persistent	–	–
[H]/N=C(\N)NN=Cc1ccc(F)c(Cl)c1 [Compound 15, (E)-2-(3-chloro-4-fluorobenzylidene)hydrazine-1-carboximidamide]	7.68 ± 2.18 µM	6.14 ± 0.28 µM	–	–	–
[H]/N=C(\N)NN=Cc1ccccc1F [Compound 17, (E)-2-(2-fluorobenzylidene)hydrazine-1-carboximidamide]	18.1 ± 1.8 µM	12 ± 0.8 µM	(No)	–	–
N=C(N)N/N=C/c1cc(Cl)c(Cl)cc1F [Compound 18, (E)-2-(4,5-dichloro-2-fluorobenzylidene)hydrazine-1-carboximidamide]	4.85 ± 0.14 µM	10.2 ± 0.14 µM	–	–	–
[H]/N=C(\N)NN=Cc1cc(F)ccc1Cl [Compound 20, (E)-2-(2-chloro-5-fluorobenzylidene)hydrazine-1-carboximidamide]	5.17 ± 0.69 µM	–	–	R15AB	–
[H]/N=C(\N)NN=Cc1cccnc1Cl [Compound 21, (E)-2-((2-chloropyridin-3-yl)methylene)hydrazine-1-carboximidamide]	0.537 µM	–	Transient	–	–
[H]/N=C(\N)NN=Cc1ccc(Cl)nc1Cl [Compound 22, (E)-2-((2,6-dichloropyridin-3-yl)methylene)hydrazine-1-carboximidamide]	12.3 µM	–	–	R15AB	–
[H]/N=C(\N)NN=Cc1cccc(F)c1 [Compound 23, (E)-2-(3-fluorobenzylidene)hydrazine-1-carboximidamide]	1.05 ± 0.32 µM	–	–	R15AB	–
[H]/N=C(\N)NN=Cc1cccc(Cl)c1 [Compound 24, (E)-2-(3-chlorobenzylidene)hydrazine-1-carboximidamide]	18.7 µM	6.27 µM	–	R15AB	–
[H]/N=C(\N)NN=Cc1cc(Cl)ccc1Cl [Compound 26, (E)-2-(2,5-dichlorobenzylidene)hydrazine-1-carboximidamide]	30 ± 2.3 µM	–	–	R15AB	–
[H]/N=C(\N)NN=Cc1cc(F)cc(F)c1Cl [Compound 29, (E)-2-(2-chloro-3,5-difluorobenzylidene)hydrazine-1-carboximidamide]	4.06 µM	–	–	R15AB	–
[H]/N=C(\N)NN=Cc1cccc(Cl)c1F [Compound 30, (E)-2-(3-chloro-2-fluorobenzylidene)hydrazine-1-carboximidamide]	12.3 ± 0.6 µM	12.8 ± 0.08 µM	No	–	–
[H]/N=C(\N)NN=Cc1c(Cl)ccc(Cl)c1Cl [Compound 31, (E)-2-(2,3,6-trichlorobenzylidene)hydrazine-1-carboximidamide]	14.3 ± 0.7 µM	12.6 ± 1.4 µM	No	–	–
[H]/N=C(\N)NN=Cc1cc(Cl)cc(Cl)c1 [Compound 34, (E)-2-(3,5-dichlorobenzylidene)hydrazine-1-carboximidamide]	31.3 ± 2 µM	–	–	R15AB	–
